# Measurements taken from patent US20020152499A1, “Gene encoding a protein involved in the signal transduction cascade leading to systemic acquired resistance in plants” (priority 1996, published 2002).
# Legend:
# [1] = system: Peronospora parasitica isolate Emwa; experiment: Infection severity rating after inoculation with Peronospora parasitica (Emwa) following chemical pretreatment
# Method: (§1) Wild-type seeds and seeds for each of the nim1 alleles (nim1-1,-2,-3,-4,-5,-6) were sown onto MetroMix 300 growing media, covered with a transparent plastic dome, and placed at 4° C. in the dark for 3 days. After 3 days of 4° C. treatment, the plants were moved to a phytotron for 2 weeks. By approximately 2 weeks post-planting, germinated seedlings had produced 4 true leaves. Plants were then treated with H2O, 5 mM SA, 300 μM BTH, or 300 μM INA. Chemicals were applied as a fine mist to completely cover the seedlings using a chromnister. Water control plants were returned to the growing phytotron while the chemically treated plants were held in a separate but identical phytotron. At 3 days post-chemical application, water and chemically treated plants were inoculated with the compatible ‘Emwa’ isolate. ‘Noco’ inoculation was conducted on water treated plants only. Following inoculation, plants were covered with a clear plastic dome to maintain high humidity required for successful P. parasitica infection and placed in a growing chamber with 19° C. day/17° C. night temperatures and 8 h light/16 h dark cycles.
# WsWT indicates the Ws wild type parent line in which the nim1 alleles were found. The various nim1 alleles are indicated in the table and the NahG plant is indicated also.
# NahG plants therefore serve as a kind of universal susceptibility control.
# PR-1, PR-2 and PR-5 = experiment: Northern analysis of SAR gene expression after chemical treatment
# Method: Plants were then treated with H2O, 5 mM SA, 300 FM BTH, or 300 FM INA. Chemicals were applied as a fine mist to completely cover the seedlings using a chromister. Water control plants were returned to the growing phytotron while the chemically treated plants were held in a separate but identical phytotron. At 3 days post-chemical application, water and chemically treated plants were inoculated with the compatible Emwa isolate. Noco inoculation was conducted on water treated plants only. Following inoculation, plants were covered with a clear plastic dome to maintain high humidity required for successful P. parasitica infection and placed in a growing chamber with 19° C. day/17° C. night temperatures and 8 h light/16 h dark cycles. RNA was extracted from plants 3 days after either water or chemical treatment, or 14 days after inoculation with the compatible P. parasitica Emwa isolate. The RNA was size-fractionated by agarose gel electrophoresis and transferred to GeneScreenPlus membranes (DuPont).
# In FIG. 1, replicate blots were hybridized to Arabidopsis gene probes PR-1, PR-2 and PR-5 as described in Uknes et al. (1992).
# [2] = system: Peronospora parasitica isolate Emwa; experiment: Percent of plants showing P. parasitica Emwa surface conidia after chemical pretreatment; conditions: for Percent Infection - Emwa: P. parasitica inoculated 3 days after chemical treatment
# Method: Mutant plants were treated with SA, INA, and BTH and then assayed for resistance to Peronospora parasitica.P. parasitica isolate ‘Emwa’ is a Pp. isolate that is compatible in the Ws ecotype.
# as §1
# To determine the relative strength of the different nim1 alleles, each mutant was microscopically analyzed at various timepoints after inoculation for the growth of P. parasitica under normal growth conditions and following pretreatment with either SA, INA, or BTH. Under magnification, sporulation of the fungus could be observed at very early stages of disease development. The percentage of plants/pot showing sporulation at 5d, 6d, 7d, 1 id and 14d after inoculation was determined and the density of sporulation was also recorded.
# P. parasitica was inoculated onto the plants three days after water or chemical treatment.
# NIM1 gene = experiment: RNA gel blot of NIM1 (gene region 2) mRNA after chemical treatment; conditions: wild-type Ws plants (FIG. 7)
# From the text: To ascertain which gene region contained the NIM1 gene, gel blots containing RNA isolated from leaf tissue of Ws-0 and the different nim1 mutants following either water or chemical treatment were probed with DNA derived from each of the four gene regions. In these experiments, care was taken to label probes to high specific activity and autoradiographs were exposed for more than 1 week.
# Identical Northern blots were made from RNA samples isolated from water-, SA-, BTH- and INA-treated Ws and nim1 lines as previously described in Delaney, et al. (1995). These blots were hybridized with PCR products generated from the four gene regions identified in the 9.9 kb NIM1 gene region (SEQ ID NO:1).
# The same RNA samples produced in the induction studies (FIG. 3) were also probed with the NIM1 gene using a full4ength cDNA clone as a probe.
structure (smiles),measurement,setting,value
CSC(=O)c1cccc2nnsc12 [BTH],response of plants to the inducer (disease resistance),[1]; NahG plants,very good response
same,Infection Severity - Emwa,"[1]; NahG plants, Day 7 after inoculation",0
same,Infection Severity - Emwa,"[1]; NahG plants, Day 11 after inoculation",0
same,Infection Severity - Emwa,"[1]; Ws Wt plants, Day 7 after inoculation",0
same,Infection Severity - Emwa,"[1]; Ws Wt plants, Day 11 after inoculation",0
same,induced resistance to Emwa,[1]; Ws plants,very good resistance
same,Infection Severity - Emwa,"[1]; nim1-1 plants, Day 7 after inoculation",2.5
same,Infection Severity - Emwa,"[1]; nim1-1 plants, Day 11 after inoculation",4
same,Infection Severity - Emwa,"[1]; nim1-2 plants, Day 7 after inoculation",3.5
same,Infection Severity - Emwa,"[1]; nim1-2 plants, Day 11 after inoculation",4
same,Infection Severity - Emwa,"[1]; nim1-3 plants, Day 7 after inoculation",3
same,Infection Severity - Emwa,"[1]; nim1-3 plants, Day 11 after inoculation",3.5
same,Infection Severity - Emwa,"[1]; nim1-4 plants, Day 7 after inoculation",4
same,Infection Severity - Emwa,"[1]; nim1-4 plants, Day 11 after inoculation",5
same,Infection Severity - Emwa,"[1]; nim1-5 plants, Day 7 after inoculation",1.5
same,Infection Severity - Emwa,"[1]; nim1-5 plants, Day 11 after inoculation",2
same,Infection Severity - Emwa,"[1]; nim1-6 plants, Day 7 after inoculation",3
same,Infection Severity - Emwa,"[1]; nim1-6 plants, Day 11 after inoculation",4
same,"SAR and SAR gene expression (PR-1, PR-2, PR-5)","PR-1, PR-2 and PR-5; nim1 plants, RNA gel blots FIGS. 1-3",induce neither SAR nor SAR gene expression
same,PR-1 mRNA accumulation,"PR-1, PR-2 and PR-5; wild-type plants, RNA 3 days after chemical treatment (FIG. 3)",accumulates to high levels
same,Percent Infection - Emwa,"[2]; Ws WT plants, Day 0",0%
same,Percent Infection - Emwa,"[2]; Ws WT plants, Day 5",0%
same,Percent Infection - Emwa,"[2]; Ws WT plants, Day 6",0%
same,Percent Infection - Emwa,"[2]; Ws WT plants, Day 7",0%
same,Percent Infection - Emwa,"[2]; Ws WT plants, Day 11",0%
same,Percent Infection - Emwa,"[2]; nim1-1 plants, Day 0",0%
same,Percent Infection - Emwa,"[2]; nim1-1 plants, Day 5",1%
same,Percent Infection - Emwa,"[2]; nim1-1 plants, Day 6",5%
same,Percent Infection - Emwa,"[2]; nim1-1 plants, Day 7",30%
same,Percent Infection - Emwa,"[2]; nim1-1 plants, Day 11",100%
same,Percent Infection - Emwa,"[2]; nim1-2 plants, Day 0",0%
same,Percent Infection - Emwa,"[2]; nim1-2 plants, Day 5",0%
same,Percent Infection - Emwa,"[2]; nim1-2 plants, Day 6",25%
same,Percent Infection - Emwa,"[2]; nim1-2 plants, Day 7",90%
same,Percent Infection - Emwa,"[2]; nim1-2 plants, Day 11",100%
same,Percent Infection - Emwa,"[2]; nim1-3 plants, Day 0",0%
same,Percent Infection - Emwa,"[2]; nim1-3 plants, Day 5",15%
same,Percent Infection - Emwa,"[2]; nim1-3 plants, Day 6",70%
same,Percent Infection - Emwa,"[2]; nim1-3 plants, Day 7",100%
same,Percent Infection - Emwa,"[2]; nim1-3 plants, Day 11",100%
same,Percent Infection - Emwa,"[2]; nim1-4 plants, Day 0",0%
same,Percent Infection - Emwa,"[2]; nim1-4 plants, Day 5",80%
same,Percent Infection - Emwa,"[2]; nim1-4 plants, Day 6",100%
same,Percent Infection - Emwa,"[2]; nim1-4 plants, Day 7",100%
same,Percent Infection - Emwa,"[2]; nim1-4 plants, Day 11",100%
same,Percent Infection - Emwa,"[2]; nim1-5 plants, Day 0",0%
same,Percent Infection - Emwa,"[2]; nim1-5 plants, Day 5",0%
same,Percent Infection - Emwa,"[2]; nim1-5 plants, Day 6",1%
same,Percent Infection - Emwa,"[2]; nim1-5 plants, Day 7",1%
same,Percent Infection - Emwa,"[2]; nim1-5 plants, Day 11",10%
same,Percent Infection - Emwa,"[2]; nim1-6 plants, Day 0",0%
same,Percent Infection - Emwa,"[2]; nim1-6 plants, Day 5",1%
same,Percent Infection - Emwa,"[2]; nim1-6 plants, Day 6",90%
same,Percent Infection - Emwa,"[2]; nim1-6 plants, Day 7",100%
same,Percent Infection - Emwa,"[2]; nim1-6 plants, Day 11",100%
same,activity in nim1 plants,[2]; nim1 plants,inactive
same,NIM1 (gene region 2) mRNA,NIM1 gene,induced
